According to BindingDB's records for doi:10.1021/jm050559f (Wyeth Research, 2005):

Legend:
[1] = molecular target: T1, Vascular endothelial growth factor receptor 2 (Homo sapiens, UniProt P35968); experiment: Inhibition of poly(Glu4-Tyr)peptide phosphorylation by recombinant VEGFR2 at 10 uM ATP
[2] = molecular target: T1, Vascular endothelial growth factor receptor 2; experiment: Inhibition of poly(Glu4-Tyr)peptide phosphorylation by recombinant VEGFR2 at 10 uM ATP and in presence of 5% mouse plasma
[3] = molecular target: T1, Vascular endothelial growth factor receptor 2; experiment: Inhibition of poly(Glu4-Tyr)peptide phosphorylation by recombinant VEGFR2 at 10 uM ATP and in presence of 100 uM glutathione

T1 sequence (P35968 whole entry): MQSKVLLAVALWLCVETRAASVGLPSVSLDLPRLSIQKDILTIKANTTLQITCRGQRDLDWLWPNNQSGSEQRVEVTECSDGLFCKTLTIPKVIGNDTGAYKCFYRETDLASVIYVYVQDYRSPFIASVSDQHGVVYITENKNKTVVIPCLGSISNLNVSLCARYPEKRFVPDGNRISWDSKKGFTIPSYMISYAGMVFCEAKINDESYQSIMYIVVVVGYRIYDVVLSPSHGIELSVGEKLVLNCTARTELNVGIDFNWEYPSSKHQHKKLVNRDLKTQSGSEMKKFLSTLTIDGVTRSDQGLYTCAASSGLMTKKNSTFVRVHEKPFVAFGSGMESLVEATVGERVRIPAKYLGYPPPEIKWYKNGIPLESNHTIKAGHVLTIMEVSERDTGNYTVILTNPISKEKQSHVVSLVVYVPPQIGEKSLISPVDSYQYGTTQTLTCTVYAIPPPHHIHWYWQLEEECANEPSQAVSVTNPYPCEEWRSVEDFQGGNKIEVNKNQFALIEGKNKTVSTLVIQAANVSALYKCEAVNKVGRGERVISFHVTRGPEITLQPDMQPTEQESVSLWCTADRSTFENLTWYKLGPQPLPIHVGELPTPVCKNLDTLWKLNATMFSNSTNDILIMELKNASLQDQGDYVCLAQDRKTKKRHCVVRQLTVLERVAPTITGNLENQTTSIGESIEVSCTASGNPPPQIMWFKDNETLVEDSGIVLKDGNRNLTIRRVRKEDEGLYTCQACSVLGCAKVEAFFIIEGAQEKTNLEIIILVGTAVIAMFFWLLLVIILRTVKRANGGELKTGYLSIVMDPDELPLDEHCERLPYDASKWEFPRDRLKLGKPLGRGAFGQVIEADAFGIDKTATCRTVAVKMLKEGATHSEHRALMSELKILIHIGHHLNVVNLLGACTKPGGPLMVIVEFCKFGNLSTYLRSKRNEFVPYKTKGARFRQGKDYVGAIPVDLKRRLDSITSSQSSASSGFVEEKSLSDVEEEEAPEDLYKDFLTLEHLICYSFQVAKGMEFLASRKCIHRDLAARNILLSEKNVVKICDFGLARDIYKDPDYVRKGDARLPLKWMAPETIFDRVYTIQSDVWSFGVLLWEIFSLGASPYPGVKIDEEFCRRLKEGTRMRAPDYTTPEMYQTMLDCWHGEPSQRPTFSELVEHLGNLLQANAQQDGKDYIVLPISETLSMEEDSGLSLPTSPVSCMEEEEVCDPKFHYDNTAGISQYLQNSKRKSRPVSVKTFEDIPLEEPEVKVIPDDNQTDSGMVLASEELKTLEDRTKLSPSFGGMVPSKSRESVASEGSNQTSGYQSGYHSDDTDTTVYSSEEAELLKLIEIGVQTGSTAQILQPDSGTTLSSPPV

IC50 [1]: > 1 µM | IC50 [2]: > 1 µM | IC50 [3]: > 1 µM
Compound: COCCOc1cc2ncnc(N=C3C(=O)C(OC)=CC(=O)C3Sc3ccccn3)c2cc1OC (stereo not drawn) [5-methoxy-3-{[6-methoxy-7-(2-methoxyethoxy)quinazolin-4-yl]amino}-2-(pyridin-2-ylthio)benzo-1,4-quinone]
